Experiment: MRI measurements of relaxation rates and relaxivities
Format: physicochemical
Conditions: for r1: relaxivity, MRI measurement
From the text: MRI measurements: See Engström et al., Magn Reson Mater Phy, 19 (2006) 180-186.
Commercially available and clinically used Gd^3+-DPTA has under the same conditions lower values for 1/T1 and 1/T2 (e.g. 1/T1=0.005 ms^−1). Variations in relaxivities (r1 and r2) and in the relaxivity ratio (r2/r1) are illustrated by: […]

1/T1 (1 mM) (relaxation rate at 1 mM Gd) [ms^−1]	1/T2 (relaxation rate, result in words)	SMILES	r1 [mM⁻¹ s⁻¹]
		[Cl][Gd]([Cl])[Cl] [Gd^3+ (GDCl3)]	10.5
0.005	lower	O=C([O-])CN(CCN(CC(=O)[O-])CC(=O)O)CCN(CC(=O)[O-])CC(=O)O.[Gd+3] [Gd^3+-DTPA]	4.1
